According to US20230263822A1, “MODULATION OF FACTOR 11 EXPRESSION” (Ionis Pharmaceuticals, Inc., priority 2008, published 2023):

Columns and labels:
Factor 11 activity = assay: Factor 11 protein activity, F11 assay based on clotting time (Example 45); assay type: in vivo, cynomolgus monkeys
Procedure: (§1) Groups, each consisting of two male and three female monkeys, were injected subcutaneously with ISIS 416838, ISIS 416850, ISIS 416858, ISIS 416864, or ISIS 417002 in escalating doses. Antisense oligonucleotide was administered to the monkeys at 5 mg/kg three times per a week for week 1; 5 mg/kg twice per week for weeks 2 and 3; 10 mg/kg three times per week for week 4; 10 mg/kg twice per week for weeks 5 and 6; 25 mg/kg three times per week for week 7; and 25 mg/kg twice per week for weeks 8, 9, 10, 11, and 12. One control group, consisting of two male and three female monkeys, was injected subcutaneously with PBS according to the same dosing regimen. An additional experimental group, consisting of two male and three female monkeys, was injected subcutaneously with ISIS 416850 in a chronic, lower dose regimen. Antisense oligonucleotide was administered to the monkeys at 5 mg/kg three times per week for week 1; 5 mg/kg twice per week for week 2 and 3; 10 mg/kg three times per week for week 4; and 10 mg/kg twice per week for weeks 5 to 12. Body weights were measured weekly. Blood samples were collected 14 days and 5 days before the start of treatment and subsequently once per week for Factor 11 protein activity analysis in plasma, fibrinogen measurement, PT and aPTT measurements, bleeding times, and measurement of various hematologic factors. On day 85, the monkeys were euthanized by exsanguination while under deep anesthesia, and organs harvested for further analysis.
Blood samples were collected at various time points and Factor 11 proenzyme was measured using a F11 assay based on clotting time. Clotting times were determined in duplicate with a ST4 semi-automated coagulation instrument (Diagnostica Stago, NJ). Thirty μl of citrated sample plasma diluted 1/20 in HEPES-NaCl buffer with BSA was incubated with 30 μl aPTT reagent (Automated aPTT, Organon Technika, NC) and 30 μl of citrated plasma deficient of Factor 11 (George King Bio-Medical Inc.) at 37° C. for 5 min, followed by the addition of 30 μl of 25 mM CaCl2) to initiate clotting. Results were interpolated on a standard curve of serially diluted citrated control plasma.
Results are presented in Table 118 as percent inhibition of Factor 11 activity, relative to PBS control. The ISIS oligonucleotide, ISIS 416850, given with the chronic dose regimen is distinguished from the other oligonucleotides with an asterisk (*).

[1] = Tolerability in CD1 mice: kidney function, BUN (Example 37); conditions: plasma, 50 mg/kg s.c. twice per week for 6 weeks
[2] = Tolerability in Sprague-Dawley rats: hematology assays (Example 35); conditions: 50 mg/kg s.c. twice per week for 6 weeks
Procedure: A control group of four Sprague Dawley rats was injected subcutaneously with PBS twice per week for 6 weeks. Body weight measurements were taken before and throughout the treatment period. Urine samples were taken before the start of treatment. Three days after the last dose, urine samples were taken and the rats were sacrificed. Organ weights were measured and blood was collected for further analysis.
Blood obtained from all rat groups were sent to Antech Diagnostics for hematocrit (HCT), mean corpuscular volume (MCV), mean corpuscular hemoglobin (MCV), and mean corpuscular hemoglobin concentration (MCHC) measurements and analyses, as well as measurements of various blood cells, such as WBC (neutrophils, lymphocytes and monocytes), RBC, and platelets as well as hemoglobin content.

[3] = Liver function, ALT, AST, bilirubin in cynomolgus monkeys (Example 45); assay type: in vivo; conditions: plasma
Procedure: as §1
The ISIS oligonucleotide, ISIS 416850, given with the chronic dose regimen is distinguished from the other oligonucleotides with an asterisk (*).

platelet aggregation = assay: Platelet aggregation assay, ADP and/or collagen (Example 45); assay type: in vivo, cynomolgus monkeys
Procedure: as §1
Platelet aggregation was initiated by adding 1 mmol/L ADP and/or 3 μg collagen (depending on the collection day, as outlined in Table 121) to plasma samples, and was allowed to proceed for 10 minutes. Aggregation was characterized by recording the change in the electrical resistance or impedance and the change in the initial slope of aggregation after platelet shape change. The aggregation test was performed twice per sample on each collection day and the average value was taken. The ISIS oligonucleotide, ISIS 416850, given with the chronic dose regimen is distinguished from the other oligonucleotides with an asterisk (*).

[4] = Tolerability in CD1 mice: liver function (Example 41); conditions: 50 mg/kg s.c. twice per week for 6 weeks, plasma
[5] = day 22, chronic dose regimen (*)
[6] = day 22, escalating dose regimen
[7] = day 43, chronic dose regimen (*)
[8] = day 43, escalating dose regimen
[9] = day 64, escalating dose regimen
[10] = day 85, escalating dose regimen
[11] = day −14, chronic dose regimen (*)
[12] = day −14, escalating dose regimen

Substance: ISIS 416850: MOE gapmer, nucleobases 1275 to 1318 of SEQ ID NO: 1 (Table 8) (antisense TGCACAGTTTCTGGCAGGCC; MOE gapmer, wing and gap sizes not given here)
- percent inhibition of Factor 11 activity, relative to PBS control (Factor 11 activity; day 8, chronic dose regimen (*)): 6%
- percent inhibition of Factor 11 activity, relative to PBS control (Factor 11 activity; day 8, escalating dose regimen): 8%
- percent inhibition of Factor 11 activity, relative to PBS control (Factor 11 activity; day 15, chronic dose regimen (*)): 13%
- percent inhibition of Factor 11 activity, relative to PBS control (Factor 11 activity; day 15, escalating dose regimen): 4%
- percent inhibition of Factor 11 activity, relative to PBS control (Factor 11 activity; [5]): 12%
- percent inhibition of Factor 11 activity, relative to PBS control (Factor 11 activity; [6]): 11%
- percent inhibition of Factor 11 activity, relative to PBS control (Factor 11 activity; day 29, chronic dose regimen (*)): 20%
- percent inhibition of Factor 11 activity, relative to PBS control (Factor 11 activity; day 29, escalating dose regimen): 15%
- percent inhibition of Factor 11 activity, relative to PBS control (Factor 11 activity; day 36, chronic dose regimen (*)): 24%
- percent inhibition of Factor 11 activity, relative to PBS control (Factor 11 activity; day 36, escalating dose regimen): 17%
- percent inhibition of Factor 11 activity, relative to PBS control (Factor 11 activity; [7]): 24%
- percent inhibition of Factor 11 activity, relative to PBS control (Factor 11 activity; [8]): 23%
- percent inhibition of Factor 11 activity, relative to PBS control (Factor 11 activity; day 50, chronic dose regimen (*)): 30%
- percent inhibition of Factor 11 activity, relative to PBS control (Factor 11 activity; day 50, escalating dose regimen): 42%
- percent inhibition of Factor 11 activity, relative to PBS control (Factor 11 activity; day 57, escalating dose regimen): 49%
- percent inhibition of Factor 11 activity, relative to PBS control (Factor 11 activity; [9]): 55%
- percent inhibition of Factor 11 activity, relative to PBS control (Factor 11 activity; day 71, escalating dose regimen): 57%
- percent inhibition of Factor 11 activity, relative to PBS control (Factor 11 activity; day 78, escalating dose regimen): 63%
- percent inhibition of Factor 11 activity, relative to PBS control (Factor 11 activity; [10]): 64%
- percent inhibition of Factor 11 activity, relative to PBS control (Factor 11 activity; day −5, chronic dose regimen (*)): 1%
- percent inhibition of Factor 11 activity, relative to PBS control (Factor 11 activity; day −5, escalating dose regimen): 0%
- percent inhibition of Factor 11 activity, relative to PBS control (Factor 11 activity; [11]): 0%
- percent inhibition of Factor 11 activity, relative to PBS control (Factor 11 activity; [12]): 0%
- BUN [1]: 24 mg/dL
- Platelets [2]: 26 10^3/μL
- RBC [2]: 7
- WBC [2]: 16 nL⁻¹
- lymphocytes [2]: 8%
- monocytes [2]: 11%
- neutrophils [2]: 48%
- HCT ([2]; title says % control): 5%
- MCH ([2]; title says % control): 4
- MCHC ([2]; title says % control): 2%
- MCV ([2]; title says % control): 3
- ALT [3, 5]: 42 IU/L
- AST [3, 5]: 39 IU/L
- Bilirubin [3, 5]: 0.19 mg/dL
- ALT [3, 6]: 41 IU/L
- AST [3, 6]: 45 IU/L
- Bilirubin [3, 6]: 0.13 mg/dL
- ALT [3, 7]: 41 IU/L
- AST [3, 7]: 40 IU/L
- Bilirubin [3, 7]: 0.18 mg/dL
- ALT [3, 8]: 43 IU/L
- AST [3, 8]: 50 IU/L
- Bilirubin [3, 8]: 0.13 mg/dL
- ALT [3, 9]: 60 IU/L
- AST [3, 9]: 56 IU/L
- Bilirubin [3, 9]: 0.14 mg/dL
- ALT [3, 10]: 75 IU/L
- AST [3, 10]: 82. IU/L
- Bilirubin [3, 10]: 0.14 mg/dL
- ALT [3, 11]: 80 IU/L
- AST [3, 11]: 100 IU/L
- Bilirubin [3, 11]: 0.28 mg/dL
- ALT [3, 12]: 54 IU/L
- AST [3, 12]: 81 IU/L
- Bilirubin [3, 12]: 0.21 mg/dL
- platelet aggregation (platelet aggregation; day 15 (with ADP), chronic dose regimen (*)): 14 Ohms
- platelet aggregation (platelet aggregation; day 15 (with ADP), escalating dose regimen): 12 Ohms
- platelet aggregation (platelet aggregation; day 36 (with ADP), chronic dose regimen (*)): 11.6 Ohms
- platelet aggregation (platelet aggregation; day 36 (with ADP), escalating dose regimen): 16 Ohms
- platelet aggregation (platelet aggregation; day 43 (with collagen), chronic dose regimen (*)): 21 Ohms
- platelet aggregation (platelet aggregation; day 43 (with collagen), escalating dose regimen): 16 Ohms
- platelet aggregation (platelet aggregation; day 57 (with ADP), escalating dose regimen): 18 Ohms
- platelet aggregation (platelet aggregation; day 64 (with collagen), escalating dose regimen): 17 Ohms
- platelet aggregation (platelet aggregation; day 78 (with ADP), escalating dose regimen): 9 Ohms
- platelet aggregation (platelet aggregation; day 85 (with ADP), escalating dose regimen): 22 Ohms
- platelet aggregation (platelet aggregation; day 85 (with collagen), escalating dose regimen): 26 Ohms
- platelet aggregation (platelet aggregation; day −5 (with collagen), chronic dose regimen (*)): 21 Ohms
- platelet aggregation (platelet aggregation; day −5 (with collagen), escalating dose regimen): 23 Ohms
- ALT [4]: 90 IU/L
- AST [4]: 115 IU/L
- Albumin [4]: 3.2
- Bilirubin [4]: 0.20 mg/dL
